From ChEMBL document CHEMBL1157539, “Thousands of chemical starting points for antimalarial lead identification” (Nature, 2010) come the findings set out here.

This test concerns Plasmodium falciparum. The test is described as follows: GSK_TCMDC: Inhibition of Plasmodium falciparum 3D7 in whole erythrocytes, using parasite LDH activity as an index of growth. The format is functional, organism-based. The settings on record: Plasmodium falciparum, 3D7.

Turning to `O=S(=O)(c1c(Cl)cc(Cl)cc1Cl)N1CCCCC(c2ccc(Cl)cc2)=N1`, the XC50 was determined as 402 nM.

Consider `COc1cc(Cc2cnc(N)nc2N)cc(OC)c1OC` [TRIMETHOPRIM], for which the XC50 worked out at 755 nM.

In turn, `Fc1ccc2[nH]c(-c3ccc(-c4ccc(CN5CCCCC5)cc4)cc3)nc2c1` yielded an XC50 of 349 nM.

Turning to `Cc1n[nH]c2ccc(-c3cc(OC[C@@H](N)Cc4ccccc4)cnc3-c3ccc(OCc4cccc(F)c4)cc3)cc12`, the XC50 was determined as 730 nM.

In the case of `COc1ccc(-c2cccc(NC(=O)c3ccc(C#N)cc3)c2)cc1CN1CCCC1`, the XC50 amounted to 696 nM.

Regarding `CCc1cn(CCOC)c2ccc(C(=O)N[C@@H](Cc3ccccc3)[C@H](O)CNC(C)(C)CCCC(C)C)cc12`, the XC50 turned out to be 569 nM.

In turn, `COC(=O)c1cccc(CNCc2ccc(-c3ccc(-c4nc5cc(C(F)(F)F)ccc5[nH]4)s3)cc2)c1` returned an XC50 of 157 nM.

In turn, `CC1CN(Cc2ccc(C#N)cc2)CCN1c1ccc(NC(=O)c2cccs2)cc1` (centres undefined) showed an XC50 of 809 nM.

Molecule `CC(C)(CNCc1cccc(Oc2cccc(C(F)(F)F)c2)c1)c1nc(-c2ccnc(N)n2)c(-c2ccc(Cl)c(O)c2)[nH]1` returned an XC50 of 193 nM.

Molecule `CCCCN(CCCC)CCOc1cc2c(cc1OC)CCN2C(=O)/C=C/c1ccccc1Cl` came in with an XC50 of 1180 nM.

For `CN1CCN(c2ccc(Nc3ncc(C#N)c(Nc4ccccc4C(N)=O)n3)cc2)CC1`, the XC50 is 39.4 nM.

`Cc1ccc(Nc2ccnc(Nc3ccc(C)c(F)c3)n2)cc1O` returned an XC50 of 761 nM.

For the molecule `O=C(NC1CCN(Cc2ccccc2)CC1)c1ccc(-c2nc3cc(Cl)c(Cl)cc3[nH]2)s1`, the XC50 worked out at 308 nM.

In the case of `CCCCCc1cc(OCCN(C)C)cc2c1C(=O)CC(C)(C)O2`, the XC50 was 103 nM.

`CCOC(=O)C1=C(C)N=c2sc(=Cc3cc(Cl)ccc3O)c(=O)n2C1c1ccc(OC)cc1` (centres undefined) returned an XC50 of 746 nM.

`OC(COCc1ccc(-c2ccccc2)cc1)CN1CCCCC1` (centres undefined) returned an XC50 of 269 nM.

Consider `Cc1cccc2nc(-c3ccc(-c4cccc(CNCc5ccccc5)c4)cc3)[nH]c12`, for which the XC50 was determined as 246 nM.

For `CN1CCc2ccc(NC(=O)Nc3ccc(Cl)c(Cl)c3)cc2C1`, the XC50 is 724 nM.

Molecule `O=C(NCc1cccc(F)c1)Nc1ccc(-c2cccc(-c3nc4ccccc4[nH]3)c2)cc1` came in with an XC50 of 894 nM.

Take `CC1CCCCN1CCCNc1nc(NCc2ccccc2)c2ccccc2n1` (centres undefined): the XC50 came to 953 nM.

For the molecule `Cc1noc(C)c1-c1ccc2c(Nc3ccccc3C(C)(C)C)c(C(=O)NCc3ccc4c(c3)OCO4)cnc2c1`, the XC50 stood at 912 nM.

Turning to `CC(Cc1ccc(SC(C)(C)C)cc1)NCC(O)c1cccc(Cl)c1` (centres undefined), the XC50 stood at 317 nM.

As to `Clc1ccc(-c2nc3cc(-c4ccc5nc(-c6ccc(Cl)cc6)[nH]c5c4)ccc3[nH]2)cc1`, the XC50 was 241 nM.

With `Cc1noc(-c2cccs2)c1C(=O)NC(C)c1cccc2ccccc12` (centres undefined), the XC50 came to 129 nM.

As to `N[C@@H](CCNCc1ccc(-c2cccnc2)cc1)Cc1ccc(F)c(F)c1`, the XC50 came out at 797 nM.

In turn, `COc1ccc2nc3cc(Cl)ccc3c(NCCCCCCNc3c4ccc(Cl)cc4nc4ccc(OC)cc34)c2c1` gave an XC50 of 661 nM.

`COc1cc2c(cc1OC)C(C(=O)Nc1ccc(C(F)(F)F)cc1)C(c1cccs1)N(C)C2=O` (centres undefined) displayed an XC50 of 158 nM.

`COc1ccc(CCn2c(=N)c(C(=O)NCc3ccccc3)cc3c(=O)n4ccccc4nc32)cc1` yielded an XC50 of 751 nM.

`Cc1cccc2nc(-c3cccc(-c4ccc(NC(=O)c5cccnc5)cc4)c3)[nH]c12` yielded an XC50 of 594 nM.

In turn, `C=CCn1c(Sc2ccc(C#N)c([N+](=O)[O-])c2)nnc1-c1cc(OC)cc(OC)c1` displayed an XC50 of 436 nM.

In turn, `N=C(N)CCN(Cc1ccc(Cl)cc1)c1ccc(Cl)cc1` had an XC50 of 1060 nM.

`C[C@H](Cc1ccc(OCCCCCCOc2ccc(C[C@@H](C)NC[C@H](O)c3cccc(Cl)c3)cc2)cc1)NC[C@H](O)c1cccc(Cl)c1` displayed an XC50 of 296 nM.

In the case of `O=c1c(Br)ccccc1Br`, the XC50 is 795 nM.

`O=C(Nc1ccccc1)Nc1cccc(-c2nn3c(OCCN4CCCC4)cccc3c2-c2ccncc2)c1` showed an XC50 of 404 nM.
